In the test the target is T1, Caspase-1 (Homo sapiens, UniProt P29466).
T1 sequence (P29466 whole entry): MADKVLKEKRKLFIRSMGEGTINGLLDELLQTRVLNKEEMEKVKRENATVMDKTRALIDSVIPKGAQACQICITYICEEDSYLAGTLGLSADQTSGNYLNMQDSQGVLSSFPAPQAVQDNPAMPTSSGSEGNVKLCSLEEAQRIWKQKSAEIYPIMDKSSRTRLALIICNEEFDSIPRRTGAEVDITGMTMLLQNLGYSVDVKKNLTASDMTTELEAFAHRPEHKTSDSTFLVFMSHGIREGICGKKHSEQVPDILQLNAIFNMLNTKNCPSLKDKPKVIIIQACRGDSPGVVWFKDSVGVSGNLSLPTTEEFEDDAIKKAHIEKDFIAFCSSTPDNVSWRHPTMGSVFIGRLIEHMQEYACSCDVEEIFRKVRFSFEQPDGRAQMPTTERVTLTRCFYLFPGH
The experiment in a line: The compound was tested for inhibition of IL-1 beta converting enzyme in whole human blood.

In turn, `CC(=O)N[C@@H](Cc1ccc(O)cc1)C(=O)N[C@H](C(=O)N[C@@H](C)C(=O)N[C@H](C=O)CC(=O)O)C(C)C` showed a Ki of 0.76 nM. This lies in the sub-nanomolar range.

By Ki is commonly meant the equilibrium dissociation constant of an inhibitor or competing ligand from its target.

(Values after ChEMBL document CHEMBL1126427, “Synthesis of a potent, reversible inhibitor of interleukin-1 converting enzyme” (Bioorg Med Chem Lett, 1992).)
